Earlier results, collected in patent publication US20090258897A1, “Substituted benzimidazoles” (Auspex Pharmaceuticals, Inc., priority 2008, published 2009).

Molecular target: T1, gastric H^+, K^+-ATPase (Homo sapiens, UniProt P20648)
T1 construct: host or cells: healthy volunteers (in vivo, endogenous gastric enzyme)

[1] = healthy volunteers, even after stoppage of the drug

T1 sequence (P20648 whole entry): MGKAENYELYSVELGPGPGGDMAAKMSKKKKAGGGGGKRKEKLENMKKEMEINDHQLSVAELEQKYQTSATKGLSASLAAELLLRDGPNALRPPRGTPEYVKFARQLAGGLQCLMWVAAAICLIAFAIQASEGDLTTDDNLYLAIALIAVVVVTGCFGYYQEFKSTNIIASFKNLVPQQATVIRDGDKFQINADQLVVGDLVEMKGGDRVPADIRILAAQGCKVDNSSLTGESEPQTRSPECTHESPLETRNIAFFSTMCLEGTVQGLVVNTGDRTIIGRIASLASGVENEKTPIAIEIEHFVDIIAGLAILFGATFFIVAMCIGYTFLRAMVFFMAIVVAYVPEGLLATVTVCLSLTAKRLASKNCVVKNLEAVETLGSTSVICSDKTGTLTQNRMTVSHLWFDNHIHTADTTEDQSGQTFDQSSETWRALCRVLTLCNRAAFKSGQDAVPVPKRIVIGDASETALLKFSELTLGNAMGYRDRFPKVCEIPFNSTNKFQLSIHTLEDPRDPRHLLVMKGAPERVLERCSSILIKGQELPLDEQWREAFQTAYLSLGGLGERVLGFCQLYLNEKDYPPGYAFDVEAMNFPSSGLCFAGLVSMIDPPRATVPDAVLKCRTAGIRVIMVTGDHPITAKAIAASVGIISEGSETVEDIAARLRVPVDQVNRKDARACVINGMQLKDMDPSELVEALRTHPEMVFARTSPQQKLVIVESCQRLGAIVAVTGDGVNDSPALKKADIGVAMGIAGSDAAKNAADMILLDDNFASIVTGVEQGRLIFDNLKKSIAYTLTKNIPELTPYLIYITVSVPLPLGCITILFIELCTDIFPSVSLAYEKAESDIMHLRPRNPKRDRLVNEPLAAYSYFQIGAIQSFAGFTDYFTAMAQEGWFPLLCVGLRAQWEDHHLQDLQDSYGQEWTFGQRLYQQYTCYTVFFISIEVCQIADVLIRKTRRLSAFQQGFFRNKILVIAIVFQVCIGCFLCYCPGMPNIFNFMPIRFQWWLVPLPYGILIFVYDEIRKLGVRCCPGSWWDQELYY
T1 sequence (P51164 whole entry partner): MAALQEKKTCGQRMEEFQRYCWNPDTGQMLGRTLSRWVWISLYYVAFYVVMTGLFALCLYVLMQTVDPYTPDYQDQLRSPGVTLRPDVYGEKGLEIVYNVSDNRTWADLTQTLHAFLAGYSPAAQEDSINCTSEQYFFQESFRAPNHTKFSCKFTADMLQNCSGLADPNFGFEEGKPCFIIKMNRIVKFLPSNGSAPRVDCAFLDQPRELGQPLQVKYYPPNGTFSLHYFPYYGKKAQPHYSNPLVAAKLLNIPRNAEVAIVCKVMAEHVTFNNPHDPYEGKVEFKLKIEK

For `COc1ccc2[nH]c([S+]([O-])Cc3ncc(C)c(OC)c3C)nc2n1` (stereo not drawn) [tenatoprazole, 5-methoxy-2-(4-methoxy-3,5-dimethyl-pyridin-2-ylmethane-sulfinyl)-1H-imidazo[4,5-b]pyridine], the “potency compared to other proton pump inhibitors (PPIs) such as esomeprazole” value (clinical trials) is given as “improved potency”, the “duration of acid suppression as compared with other PPIs” value [1] is given as “prolonged duration of acid suppression” and the “nocturnal acid breakthrough as compared with other PPIs” value [1] is given as “shorter nocturnal acid breakthrough”.
